Measurements as given in patent US20220054658A1, “CONJUGATES” (Transfection Holdings Limited, priority 2018, published 2022).
“Also recorded” adds a separate entry of the source.

Key:
[1] = test system: M. tuberculosis strain H37Rv; assay: Uptake test in M. tuberculosis; type: cell-based, Mycobacterium tuberculosis; details: 50 μg/mL (~80 μM), room temperature, 45 min
P. falciparum = assay: Plasmodium falciparum testing: uptake by infected and non-infected red blood cells; type: cell-based; details: 25 μM, 45 minutes, 37° C., synchronised stage and mix-stage cultures
Description: Compounds 1, 5, 9, 10 and 11 were tested for uptake in both synchronised stage and mix-stage cultures at 25 μM concentrations.

C. elegans = assay: Conjugate uptake in C. elegans (dye and praziquantel conjugates, fluorescence microscopy); type: in vivo, Caenorhabditis elegans
In short: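 Worms in M9 buffer were exposed to 50 μM compound from a DMSO stock at room temperature in the dark for 3 h. Other samples were incubated overnight at 20 °C with OP50, and praziquantel conjugates were also read at 24 and 72 h. Worms were washed, immobilised with sodium azide on agarose and imaged by fluorescence microscopy.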

B. bovis Texas strain = assay: Short-term uptake test in B. bovis infected RBCs (confocal microscopy); details: 25 μM, 37° C., 45 min, ~5% PPE
Description: The parasite culture was centrifuged and washed once with GIT medium. RBC's were pellet down, and 20 μl infected RBC mixture (10 μl packed infected RBC+10 μl GIT) was prepared. Then, 180 μl GIT medium with compound the compound to be evaluated (final concentration 25 μM for BODIPY derivatives and 100 μM for phiLOV derivatives) or DMSO (0.1%)/PBS control was added. The samples were incubated for 45 min at 37° C. (Samples were stained 1 μg/mL diluted Hoechst 33342 in GIT medium). After incubation, the samples were centrifuged and the pellet was washed with GIT medium (3×). A final solution of 50% haematocrit infected RBC mixture was transferred to slides to be observed by confocal laser microscopy (Nikon A1).
Uptake experiments were performed by incubating the parasite (˜5% Parasitized Erythrocytes (PPE)) with each derivative at 25 μM and 37° C. for 45 min. After incubation, the fluorescence intensities were calculated from confocal microscope images.
The phiLOV double mutant (R475G, K476C) was used to generate derivatives P11, P1, P8, and P3 which were tested for uptake in B. bovis Texas strain using phiLOV as a control. The derivatives and the control were incubated at 100 μM and 37° C. for 45 min. After incubation, the samples were analysed under confocal microscopy using Hoeschst 33342 (Thermofisher) as co-stain.

## CC1=CC(C)=[N+]2C1=Cc1ccc(CCCn3cc(CCNC(=O)/C=C/NC(=O)[C@@H]4OC(C)(C)OCC4(C)C)nn3)n1[B-]2(F)F [Compound 1, (R,E)-N-((((3-[4,4-Difluoro-5,7-dimethyl-4-bora-3a,4a-diaza-s-indacene-3-yl]propyl)-1H-1,2,3-triazol-4-yl)ethylamino)-3-oxoprop-1-enyl)-2,2,5,5-tetramethyl-1,3-dioxane-4-carboxamide]
[1]
  uptake in M. tuberculosis (fluorescence intensity / microscopy): preferred over their S counterparts; also recorded: highest fluorescence signals
P. falciparum
  uptake by infected and non-infected red blood cells: not taken up either by infected nor non-infected red blood cells in every culture
C. elegans; 50 μM, 3 h incubation
  uptake compared to other compounds: largest uptake observed compared to compounds 2 to 8
  uptake: location of fluorescence in C. elegans: observed in the pharynx, gut lumen and gut cells of both adults and larval stages
C. elegans; 50 μM, 20 h / overnight incubation
  uptake: location of fluorescence in C. elegans: strong fluorescence was localised in the pharynx, gut lumen and gut cells of both adults and larvae
C. elegans; FIG. 2(h), fluorescence microscopy
  distribution in C. elegans: distributed throughout the nematode
B. bovis Texas strain
  uptake in RBCs infected with B. bovis (fluorescence intensity from confocal images): highest uptake
